Assays:
AmpKR2 [1] = target: AmpKR2 (Streptomyces nodosus, UniProt Q93NW7, G2883T/Q2892H); assay: X-ray crystal structure, […] Å, co-crystallised; format: binding; settings: ternary complex with 2-methyl-3-oxopentanoyl-pantetheine; 3 mM NADP+
AmpKR2 [2] = target: AmpKR2 (Streptomyces nodosus, UniProt Q93NW7); assay: X-ray crystal structure, […] Å, co-crystallised; format: binding; settings: ternary complex with 2-methyl-3-oxopentanoyl-pantetheine; 3 mM NADP+

NC(=O)c1ccc[n+]([C@@H]2O[C@H](COP(=O)(O)OP(=O)(O)OC[C@H]3O[C@@H](n4cnc5c(N)ncnc54)[C@H](OP(=O)(O)O)[C@@H]3O)[C@@H](O)[C@H]2O)c1 [NADP^+]
X-ray crystal structure, 1.96 Å, co-crystallised (AmpKR2 [1]): both wild type AmpKR2 and its G355T/Q364H mutant
X-ray crystal structure, 1.80 Å, co-crystallised (AmpKR2 [2]): well-defined electron density for NADP^+ and 2-methyl-3-oxopentanoyl-pantetheine was observed in the active sites
